Results on 19 compounds are retold here after ChEMBL document CHEMBL6153090.

For assay [1], the target named is 5-hydroxytryptamine receptor 2B (Homo sapiens, UniProt P41595). Kind of assay: Displacement of [3H]-LSD from human 5-HT2B receptor at 10 uM by cell-based radioligand binding assay. On the technique in general: Loss of bound radioactivity is the signal in a displacement assay; it reports binding, not function.
Assay [2] deals with Sigma intracellular receptor 2 (Homo sapiens, UniProt Q5BJF2). Nature of the assay: Displacement of [3H]-pentazocine from human Sigma 2 receptor at 10 uM by cell-based radioligand binding assay.
Sigma intracellular receptor 2, sequence (Q5BJF2 whole entry): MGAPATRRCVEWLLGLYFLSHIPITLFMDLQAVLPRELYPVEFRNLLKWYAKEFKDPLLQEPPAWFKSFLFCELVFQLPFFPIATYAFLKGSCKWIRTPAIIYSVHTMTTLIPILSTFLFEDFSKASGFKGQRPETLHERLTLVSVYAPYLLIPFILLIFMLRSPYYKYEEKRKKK
Assay [3] has as its target D(2) dopamine receptor (Homo sapiens, UniProt P14416). Kind of assay: Displacement of [3H]-N-Methylspiperone from human D2 receptor at 10 uM by cell-based radioligand binding assay.
Assay [4] concerns the target Kappa-type opioid receptor (Homo sapiens, UniProt P41145). Kind of assay: Displacement of [3H]-U69593 human KOR receptor at 10 uM by cell-based radioligand binding assay.
Assay [5] concerns the target Histamine H1 receptor (Homo sapiens, UniProt P35367). Kind of assay: Binding affinity to H1 receptor (unknown origin) assessed as inhibition constant.
Assay [6] has as its target Sigma non-opioid intracellular receptor 1 (Homo sapiens, UniProt Q99720). Nature of the assay: Displacement of [3H]-pentazocine from human Sigma 1 receptor at 10 uM by cell-based radioligand binding assay.
Assay [7] deals with T1, Cannabinoid receptor 1 (Homo sapiens, UniProt P21554). Nature of the assay: Agonist activity at CB1 receptor in MDA-MB-231 cells at 300 uM by FLIPR assay. The format is functional, cell-based.
T1 sequence (P21554 whole entry): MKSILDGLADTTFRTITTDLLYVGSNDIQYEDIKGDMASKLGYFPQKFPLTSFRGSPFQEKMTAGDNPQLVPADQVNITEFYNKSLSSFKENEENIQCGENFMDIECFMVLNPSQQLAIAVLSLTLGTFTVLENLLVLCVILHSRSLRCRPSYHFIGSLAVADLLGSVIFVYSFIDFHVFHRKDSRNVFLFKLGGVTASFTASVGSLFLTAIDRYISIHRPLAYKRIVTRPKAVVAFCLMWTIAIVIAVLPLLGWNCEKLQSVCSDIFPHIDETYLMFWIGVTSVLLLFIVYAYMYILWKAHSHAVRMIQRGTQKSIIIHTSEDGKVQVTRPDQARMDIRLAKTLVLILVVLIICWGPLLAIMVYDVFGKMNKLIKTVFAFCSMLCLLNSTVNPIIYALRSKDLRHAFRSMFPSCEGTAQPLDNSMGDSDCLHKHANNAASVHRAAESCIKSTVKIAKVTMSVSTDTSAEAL
Assay [8] addresses Translocator protein (Homo sapiens, UniProt P30536). Kind of assay: Displacement of [3H]-PK11195 from human PBR receptor at 10 uM by cell-based radioligand binding assay.
In assay [9] the target is D(3) dopamine receptor (Homo sapiens, UniProt P35462). Kind of assay: Displacement of [3H]-N-Methylspiperone from human D3 receptor at 10 uM by cell-based radioligand binding assay.
D(3) dopamine receptor, sequence (P35462 whole entry): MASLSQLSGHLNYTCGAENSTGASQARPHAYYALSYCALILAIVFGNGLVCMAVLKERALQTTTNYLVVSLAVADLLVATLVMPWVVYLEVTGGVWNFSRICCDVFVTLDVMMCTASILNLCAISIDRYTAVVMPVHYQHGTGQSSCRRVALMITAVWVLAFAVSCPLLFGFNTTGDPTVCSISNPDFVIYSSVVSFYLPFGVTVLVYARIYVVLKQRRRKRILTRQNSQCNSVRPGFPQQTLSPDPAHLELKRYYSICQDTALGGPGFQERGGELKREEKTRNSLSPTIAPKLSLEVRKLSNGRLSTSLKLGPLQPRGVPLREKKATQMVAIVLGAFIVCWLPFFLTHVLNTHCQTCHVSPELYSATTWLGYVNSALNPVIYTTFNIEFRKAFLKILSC
For assay [10], the target named is T2, D(4) dopamine receptor (Homo sapiens, UniProt P21917).
T2 sequence (P21917 whole entry): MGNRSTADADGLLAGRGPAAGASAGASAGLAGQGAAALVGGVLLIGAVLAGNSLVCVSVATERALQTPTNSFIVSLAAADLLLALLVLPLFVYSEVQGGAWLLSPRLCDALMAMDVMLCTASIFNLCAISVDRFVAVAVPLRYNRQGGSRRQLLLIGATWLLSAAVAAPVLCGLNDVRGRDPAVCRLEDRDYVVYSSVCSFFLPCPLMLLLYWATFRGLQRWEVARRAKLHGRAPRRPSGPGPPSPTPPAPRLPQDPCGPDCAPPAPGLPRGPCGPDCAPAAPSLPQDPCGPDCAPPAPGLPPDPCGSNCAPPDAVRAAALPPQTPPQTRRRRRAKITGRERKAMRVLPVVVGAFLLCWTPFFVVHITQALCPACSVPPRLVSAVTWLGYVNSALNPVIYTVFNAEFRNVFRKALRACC
Nature of the assay: Displacement of [3H]-N-methylspiperone from human D4 receptor at 10 uM by cell-based radioligand binding assay.

Assay [11] concerns the target Sodium-dependent noradrenaline transporter (Homo sapiens, UniProt P23975). Kind of assay: Binding affinity to NET receptor (unknown origin) assessed as inhibition constant.
Assay [12] deals with T1, Cannabinoid receptor 1. Nature of the assay: Agonist activity at CB1 receptor in human MDA-MB-231 cells by FLIPR assay. It is filed as functional, cell-based.
Assay [13] addresses T1, Cannabinoid receptor 1. Kind of assay: Agonist activity at CB1 receptor in MDA-MB-231 cells at 100 to 300 uM by FLIPR assay. As to conditions: filed as agonist, dose 100-300 µM. It is filed as functional, cell-based.
Assay [14] can be described thus: Activation of GIRK channel (unknown origin) assessed as increase in fluorescence analysis. Further details: species or system Homo sapiens.

The structures appear in SMILES notation. Active and inactive are the calls of the source. The calls are words filed in the database; no cut-off is given here.

One may read the Ki as the dissociation constant of the complex between target and ligand, obtained from inhibition or displacement. The term EC50 denotes the concentration needed to bring the measured effect to its halfway point.

5-hydroxytryptamine receptor 2B, sequence (P41595 whole entry): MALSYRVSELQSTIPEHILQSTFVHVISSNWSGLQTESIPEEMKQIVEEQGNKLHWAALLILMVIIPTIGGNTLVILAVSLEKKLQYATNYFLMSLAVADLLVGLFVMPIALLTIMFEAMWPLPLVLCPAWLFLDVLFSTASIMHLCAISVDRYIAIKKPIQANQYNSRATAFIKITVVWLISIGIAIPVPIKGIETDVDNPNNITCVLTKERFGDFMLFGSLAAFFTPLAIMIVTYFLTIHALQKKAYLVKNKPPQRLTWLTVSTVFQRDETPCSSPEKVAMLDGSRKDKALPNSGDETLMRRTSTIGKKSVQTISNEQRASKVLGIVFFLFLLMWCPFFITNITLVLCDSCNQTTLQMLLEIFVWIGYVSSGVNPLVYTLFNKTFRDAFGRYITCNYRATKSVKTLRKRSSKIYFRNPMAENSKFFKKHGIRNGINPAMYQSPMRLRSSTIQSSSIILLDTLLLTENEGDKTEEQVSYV
D(2) dopamine receptor, sequence (P14416 whole entry): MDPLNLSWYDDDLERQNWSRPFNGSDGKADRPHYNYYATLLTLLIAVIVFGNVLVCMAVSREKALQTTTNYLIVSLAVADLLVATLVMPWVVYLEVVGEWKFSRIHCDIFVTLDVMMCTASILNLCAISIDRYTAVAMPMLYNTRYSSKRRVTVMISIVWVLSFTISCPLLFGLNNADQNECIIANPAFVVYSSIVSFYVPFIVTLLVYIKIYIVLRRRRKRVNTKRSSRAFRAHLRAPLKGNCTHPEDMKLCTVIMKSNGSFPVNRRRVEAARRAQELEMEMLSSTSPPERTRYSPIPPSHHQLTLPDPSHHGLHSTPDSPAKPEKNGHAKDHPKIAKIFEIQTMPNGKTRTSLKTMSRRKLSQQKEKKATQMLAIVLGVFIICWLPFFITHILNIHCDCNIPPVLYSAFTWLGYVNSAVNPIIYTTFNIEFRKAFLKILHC
Sigma non-opioid intracellular receptor 1, sequence (Q99720 whole entry): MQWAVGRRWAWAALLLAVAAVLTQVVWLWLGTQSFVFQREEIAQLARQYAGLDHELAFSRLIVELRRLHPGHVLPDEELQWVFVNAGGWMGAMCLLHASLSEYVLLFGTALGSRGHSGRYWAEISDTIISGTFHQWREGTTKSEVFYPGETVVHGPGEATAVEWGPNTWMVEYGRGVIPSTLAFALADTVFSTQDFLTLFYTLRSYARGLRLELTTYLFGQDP
Translocator protein, sequence (P30536 whole entry): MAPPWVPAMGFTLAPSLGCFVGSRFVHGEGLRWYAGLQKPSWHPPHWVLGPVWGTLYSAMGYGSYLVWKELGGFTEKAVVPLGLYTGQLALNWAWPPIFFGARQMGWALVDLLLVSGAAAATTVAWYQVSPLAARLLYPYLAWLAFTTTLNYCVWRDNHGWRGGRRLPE
Histamine H1 receptor, sequence (P35367 whole entry): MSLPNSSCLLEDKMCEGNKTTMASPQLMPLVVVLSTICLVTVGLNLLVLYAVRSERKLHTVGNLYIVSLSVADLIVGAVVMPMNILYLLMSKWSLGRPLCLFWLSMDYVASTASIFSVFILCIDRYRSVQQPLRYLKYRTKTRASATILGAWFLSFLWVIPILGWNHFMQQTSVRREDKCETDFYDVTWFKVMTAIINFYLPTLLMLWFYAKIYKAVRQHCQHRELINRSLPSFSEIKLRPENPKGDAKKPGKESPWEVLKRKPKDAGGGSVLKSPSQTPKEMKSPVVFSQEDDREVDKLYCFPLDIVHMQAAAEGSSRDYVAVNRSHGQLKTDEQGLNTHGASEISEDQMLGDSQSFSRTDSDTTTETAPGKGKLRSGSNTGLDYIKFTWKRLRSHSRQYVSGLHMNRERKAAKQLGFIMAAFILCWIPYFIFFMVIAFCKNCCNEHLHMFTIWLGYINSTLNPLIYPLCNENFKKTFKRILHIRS
Sodium-dependent noradrenaline transporter, sequence (P23975 whole entry): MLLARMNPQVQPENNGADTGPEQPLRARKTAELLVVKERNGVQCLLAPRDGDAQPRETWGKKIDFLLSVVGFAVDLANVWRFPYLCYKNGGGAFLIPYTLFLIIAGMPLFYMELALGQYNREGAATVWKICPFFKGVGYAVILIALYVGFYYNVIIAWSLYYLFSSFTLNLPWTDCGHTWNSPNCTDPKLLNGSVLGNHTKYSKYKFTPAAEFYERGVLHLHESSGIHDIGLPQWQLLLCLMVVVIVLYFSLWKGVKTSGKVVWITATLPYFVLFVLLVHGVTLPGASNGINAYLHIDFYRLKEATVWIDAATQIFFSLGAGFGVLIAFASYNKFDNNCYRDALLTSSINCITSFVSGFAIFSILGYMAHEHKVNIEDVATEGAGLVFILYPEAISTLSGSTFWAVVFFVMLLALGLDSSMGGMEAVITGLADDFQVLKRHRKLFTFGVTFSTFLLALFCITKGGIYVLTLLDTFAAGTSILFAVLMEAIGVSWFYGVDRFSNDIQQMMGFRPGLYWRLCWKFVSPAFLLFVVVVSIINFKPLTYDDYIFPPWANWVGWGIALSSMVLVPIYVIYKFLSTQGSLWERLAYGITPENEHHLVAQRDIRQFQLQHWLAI
Kappa-type opioid receptor, sequence (P41145 whole entry): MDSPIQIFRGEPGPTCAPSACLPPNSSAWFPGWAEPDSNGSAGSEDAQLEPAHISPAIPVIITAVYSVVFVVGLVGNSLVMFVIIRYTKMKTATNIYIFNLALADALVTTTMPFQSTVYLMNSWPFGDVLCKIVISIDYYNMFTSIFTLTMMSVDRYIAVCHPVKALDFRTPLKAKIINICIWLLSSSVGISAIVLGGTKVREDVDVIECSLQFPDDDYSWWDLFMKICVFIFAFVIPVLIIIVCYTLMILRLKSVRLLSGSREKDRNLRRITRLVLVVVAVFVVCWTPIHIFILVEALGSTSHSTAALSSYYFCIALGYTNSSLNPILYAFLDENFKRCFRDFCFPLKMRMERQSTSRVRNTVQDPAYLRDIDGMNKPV

As to `C=C(C)[C@H]1CCC(C)=C[C@@H]1c1c(O)cc(CCCCC)cc1OCCCCCOc1cc(CCCCC)cc(O)c1[C@@H]1C=C(C)CC[C@H]1C(=C)C`, the inhibition constant Ki in [1] worked out at 2.1 µM; in [2], 6.9 µM.
`C=C(C)[C@H]1CCC(C)=C[C@@H]1c1c(O)cc(CCCCC)cc1OCCCCOc1cc(CCCCC)cc(O)c1[C@@H]1C=C(C)CC[C@H]1C(=C)C` had an inhibition constant (Ki) in assay [2] of 5.5 µM.
On to `C=C(C)[C@@H]1CCC(C)=C[C@H]1c1c(O)cc(CCCCC)cc1OCCCCCCCCCCCCOc1cc(CCCCC)cc(O)c1[C@@H]1C=C(C)CC[C@H]1C(=C)C`, for which the results for the Ki in assay [1], in assay [3] and in [4] were 2.4 µM, > 10 µM and 1.7 µM, respectively.
For the compound `C=C(C)[C@@H]1CCC(C)=C[C@H]1c1c(OC)cc(CCCCC)cc1OCCCCOc1cc(CCCCC)cc(OC)c1[C@@H]1C=C(C)CC[C@H]1C(=C)C`, the inhibitory constant (Ki) in assay [5] is 0.6 µM.
As for `C=C(C)[C@@H]1CCC(C)=C[C@H]1c1c(OC)cc(CCCCC)cc1OCCCCCCCCOc1cc(CCCCC)cc(OC)c1[C@@H]1C=C(C)CC[C@H]1C(=C)C`, the figures for the Ki in [1] and in assay [2] were > 10 µM and 2.7 µM, respectively.
In the case of `C=C(C)[C@@H]1CCC(C)=C[C@H]1c1c(OC)cc(CCCCC)cc1OCCOCCOCCOCCOc1cc(CCCCC)cc(OC)c1[C@@H]1C=C(C)CC[C@H]1C(=C)C`, in assay [2], the inhibition constant Ki worked out at 8.1 µM.
As for `C=C(C)[C@H]1CCC(C)=C[C@@H]1c1c(O)cc(CCCCC)cc1OCCCCCCCCOc1cc(CCCCC)cc(O)c1[C@@H]1C=C(C)CC[C@H]1C(=C)C`, the inhibition constant Ki in assay [1] worked out at 4.5 µM; in assay [2] it was 1.9 µM; in [6], 1.9 µM.
On to `C=C(C)[C@@H]1CCC(C)=C[C@H]1c1c(O)cc(CCCCC)cc1O`, for which the result in assay [7] was inactive.
On to `C=C(C)[C@H]1CCC(C)=C[C@@H]1c1c(OC)cc(CCCCC)cc1OCCCCCCCCCCCCOc1cc(CCCCC)cc(OC)c1[C@H]1C=C(C)CC[C@@H]1C(=C)C`, for which the Ki in [1] was 6.6 µM; in assay [8], 0.9 µM.
Turning to `C=C(C)[C@@H]1CCC(C)=C[C@H]1c1c(OC)cc(CCCCC)cc1OCCCCCCOc1cc(CCCCC)cc(OC)c1[C@@H]1C=C(C)CC[C@H]1C(=C)C`, the inhibition constant (Ki) in assay [1] stood at 8.7 µM; in assay [2], 5.5 µM.
With `C=C(C)[C@@H]1CCC(C)=C[C@H]1c1c(O)cc(CCCCC)c2c1OCC2`, the inhibitory constant (Ki) in assay [1] amounted to 3.3 µM; in assay [9] it was 0.4 µM; in assay [3], 0.4 µM; in assay [10] it was 0.5 µM; in assay [6], 1.8 µM; in [11], 5.7 µM.
`C=C(C)[C@H]1CCC(C)=C[C@@H]1c1c(O)cc(CCCCC)cc1OCCCCCCOc1cc(CCCCC)cc(O)c1[C@@H]1C=C(C)CC[C@H]1C(=C)C` returned an inhibition constant (Ki) in assay [2] of 0.7 µM.
The same measure, in the same setting: then `C=C(C)[C@H]1CCC(C)=C[C@@H]1c1c(OC)cc(CCCCC)cc1OCCCCCCCOc1cc(CCCCC)cc(OC)c1[C@H]1C=C(C)CC[C@@H]1C(=C)C`, with 4.7 µM.
Turning to `Cn1ccc2cc3c(cc21)CCN3C(=O)Nc1cccnc1`, the affinity in assay [1] corresponds to a Ki of 0.0047 µM.
As to `C=C(C)[C@@H]1CCC(C)=C[C@H]1c1c(OC)cc(CCCCC)cc1OCCCOc1cc(CCCCC)cc(OC)c1[C@@H]1C=C(C)CC[C@H]1C(=C)C`, in assay [12], the half-maximal effective concentration (EC50) came to 42.2 µM. Besides, the values for the Ki in assay [2] and in [8] were 3.4 µM and 2.7 µM, respectively. Besides, in [13], the outcome was Active.
As for `C=C(C)[C@H]1CCC(C)=C[C@@H]1c1c(O)cc(CCCCC)cc1OCCOc1cc(CCCCC)cc(O)c1[C@@H]1C=C(C)CC[C@H]1C(=C)C`, the Ki in [1] was 1.7 µM; in [2], 0.8 µM.
In assay [12], `C=C(C)[C@@H]1CCC(C)=C[C@H]1c1c(OC)cc(CCCCC)cc1OCCCCCOc1cc(CCCCC)cc(OC)c1[C@@H]1C=C(C)CC[C@H]1C(=C)C` displayed a concentration giving a half-maximal response (EC50) of 40 µM. The outcome in [13] was Active.
`Cc1c(C(=O)c2cccc3ccccc23)c2cccc3c2n1[C@H](CN1CCOCC1)CO3` [WIN-552122]: in assay [14], the EC50 is 13.1 µM.
With `C=C(C)[C@@H]1CCC(C)=C[C@H]1c1c(O)cc(CCCCC)cc1OCCCCCCCOc1cc(CCCCC)cc(O)c1[C@@H]1C=C(C)CC[C@H]1C(=C)C`, the inhibition constant Ki in assay [1] is 1.8 µM; in [3], 0.6 µM.
